Experimental data as given in US12326492B2, “Systems and methods of detecting interstitial cystitis” (LIPELLA PHARMACEUTICALS, INC., priority 2014, dated 2025).

Key:
[1] = T1-reducing contrast agents, Table 1; cited from earlier work
[2] = MRI bladder phantom permeability assay (dialysis membrane in gelatin, spin-echo MRI); type: physicochemical; details: membrane 12-14 kD MW cutoff, 425 μM Gd-DTPA, 5 mM Ferumoxytol in lumen
Source text: FIG. 2 is a schematic of synthetic model system (an MRI “bladder phantom”) where membrane porosity and soft matter diffusivity can be controlled. The MRI bladder phantom, shown in FIG. 2, was constructed from clear polycarbonate cylindrical tubes having an outer diameter of 35 mm, a wall thickness of 4 mm, and a length of 90 mm. A sealed (70 mm length, 7 mm diameter) segment of a filled wet dialysis membrane was suspended in the center of each polycarbonate tube lumen and aligned with the tube length, during which a liquid solution (3.125% w/w) of hydrolyzed collagen was added to the lumen of the tube (but not the lumen of the dialysis membrane) and allowed to gel. The dialysis membrane porosity was 12-14 kD MW cutoff. The bladder phantom was placed in a standard mouse MRI RF coil for imaging on a 3-Tesla bench top MRI system with a bore diameter of 160 mm and a 70 mm field of view (MR Solutions, Surrey, UK). […]
This dark line is indicative of a lack of hydrogen nuclei in the liquid state where the dialysis membrane is located, a position that represents the luminal surface of the bladder. […] Since the entire lumen has an increased signal intensity, it is difficult to see without quantitative tools if the gadopentetate dimeglumine (Gd-DTPA) is diffusing into the gelatin an issue that becomes more relevant in a biological setting. […]

Molecule	Average Diameter [1]	diffusion across the dialysis membrane [2]
O=C([O-])CN1CCN(CC(=O)[O-])CCN([C@H](CO)[C@H](O)CO)CCN(CC(=O)[O-])CC1.[Gd+3] (racemic) [Gadovist, Gadobutrol]	8 Å	–
CNC(=O)CN(CCN(CCN(CC(=O)[O-])CC(=O)NC)CC(=O)[O-])CC(=O)[O-].[Gd+3] [Omniscan, Gadodiamide]	8 Å	–
O=C([O-])CN(CCN(CC(=O)[O-])CC(COP(=O)([O-])OC1CCC(c2ccccc2)(c2ccccc2)CC1)N(CC(=O)[O-])CC(=O)[O-])CC(=O)[O-].[Gd+3].[Na+].[Na+].[Na+] (stereo not shown) [Ablavar, Gadofosveset trisodium]	10 Å	–
COCCNC(=O)CN(CCN(CCN(CC(=O)[O-])CC(=O)NCCOC)CC(=O)[O-])CC(=O)[O-].[Gd+3] [OptiMARK, Gadoversetamide]	8 Å	–
Gadoterate meglumine [Dotarem]	9 Å	–
CNC[C@H](O)[C@@H](O)[C@H](O)[C@H](O)CO.CNC[C@H](O)[C@@H](O)[C@H](O)[C@H](O)CO.O=C([O-])CN(CCN(CC(=O)[O-])CC(=O)O)CCN(CC(=O)[O-])CC(=O)O.[Gd+3] [Magnevist, Gadopentetate dimeglumine]	10 Å	porosity large enough to allow gadopentetate dimeglumine (Gd-DTPA) to pass
CC(O)CN1CCN(CC(=O)[O-])CCN(CC(=O)[O-])CCN(CC(=O)[O-])CC1.[Gd+3] (stereo not shown) [ProHance, Gadoteridol]	7 Å	–
CNC[C@H](O)[C@@H](O)[C@H](O)[C@H](O)CO.CNC[C@H](O)[C@@H](O)[C@H](O)[C@H](O)CO.O=C([O-])CN(CCN(CC(=O)[O-])CC(=O)O)CCN(CC(=O)O)C(COCc1ccccc1)C(=O)[O-].[Gd+3] (stereo not shown) [MultiHance, Gadobenate Dimeglumine]	11 Å	–
CCOc1ccc(CC(CN(CCN(CC(=O)[O-])CC(=O)[O-])CC(=O)[O-])N(CC(=O)[O-])CC(=O)[O-])cc1.[Gd+3].[Na+].[Na+] (stereo not shown) [Eovist, Gadoxetate Disodium]	9 Å	–
